Test results reported in ChEMBL document CHEMBL1201862, “PubChem BioAssay data set” (2004).
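48-hour exposure; five concentrations; linearly interpolated endpoints. GI50: concentration for 50% inhibition of growth.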 The source made the active and inactive calls. Rule as the data show it: active = GI50 up to about 1.1 µM and inactive = higher.

Legend:
Test in all cases: NCI tumour cell line growth inhibition, 48 h
786-0 = system: 786-0
A498 = system: A498
HCT-116 = system: HCT-116
HL-60 = system: HL-60
HT-29 = system: HT-29
IGROV-1 = system: IGROV-1
LOX IMVI = system: LOX IMVI
M14 = system: M14
MDA-N = system: MDA-N
NCI/ADR-RES = system: NCI/ADR-RES
OVCAR-8 = system: OVCAR-8
PC-3 = system: PC-3
SF-268 = system: SF-268
SK-MEL-5 = system: SK-MEL-5
SN12C = system: SN12C
TK-10 = system: TK-10
UO-31 = system: UO-31
NCI-H522 = system: NCI-H522
NCI-H226 = system: NCI-H226

SMILES | GI50 (786-0) | GI50 (A498) | GI50 (HCT-116) | GI50 (HL-60) | GI50 (HT-29) | GI50 (IGROV-1) | GI50 (LOX IMVI) | GI50 (M14) | GI50 (MDA-N) | GI50 (NCI/ADR-RES) | GI50 (OVCAR-8) | GI50 (PC-3) | GI50 (SF-268) | GI50 (SK-MEL-5) | GI50 (SN12C) | GI50 (TK-10) | GI50 (UO-31) | GI50 (NCI-H522) | GI50 (NCI-H226)
Cc1cc2nc(N3C(=O)/C(=C/c4ccc(Cl)cc4)N=C3c3ccccc3)sc2cc1C | 29.4 µM (inactive) | 32.9 µM (inactive) | 18.4 µM (inactive) | 21.6 µM (inactive) | 23.9 µM (inactive) | 14.6 µM (inactive) | 20.5 µM (inactive) | 32.7 µM (inactive) | 12.5 µM (inactive) | 23.2 µM (inactive) | 28.4 µM (inactive) | 26.5 µM (inactive) | 30 µM (inactive) | 16.1 µM (inactive) | 24 µM (inactive) | 39.3 µM (inactive) | 26.8 µM (inactive) | – | –
CC(=O)OCCCCN1C(=O)CSc2ccccc21 | > 10 µM (inactive) | > 100 µM (inactive) | > 100 µM (inactive) | > 100 µM (inactive) | – | > 100 µM (inactive) | > 100 µM (inactive) | – | > 100 µM (inactive) | – | – | > 100 µM (inactive) | – | 66.5 µM (inactive) | > 100 µM (inactive) | > 100 µM (inactive) | 76.7 µM (inactive) | > 100 µM (inactive) | –
COc1cc(/C=C2/SC(c3ccccc3)N(c3cccc(NC(C)=O)c3)C2=O)cc(OC)c1OC (centres undefined) | 81.8 µM (inactive) | > 100 µM (inactive) | 30.2 µM (inactive) | 33.7 µM (inactive) | 38.6 µM (inactive) | – | 40.3 µM (inactive) | 27.7 µM (inactive) | 25.5 µM (inactive) | 40.7 µM (inactive) | 52.6 µM (inactive) | – | 67.9 µM (inactive) | 24.8 µM (inactive) | 91.8 µM (inactive) | > 100 µM (inactive) | 16.6 µM (inactive) | 18.2 µM (inactive) | 62.5 µM (inactive)
c1ccc(CN2CCC(Nc3ccccc3)(c3nnnn3Cc3ccccc3)CC2)cc1 | 22.4 µM (inactive) | 17.2 µM (inactive) | 20.1 µM (inactive) | 11.5 µM (inactive) | 11.6 µM (inactive) | 28.1 µM (inactive) | 20.1 µM (inactive) | 16.1 µM (inactive) | – | 24.5 µM (inactive) | 32.8 µM (inactive) | – | > 100 µM (inactive) | 13 µM (inactive) | 39.7 µM (inactive) | 29.2 µM (inactive) | 6.12 µM (inactive) | – | 42.7 µM (inactive)
COC(=O)C1=C(O)C(C(=O)OC)[C@]2(O)[C@H](C(=O)OC)[C@H]1C[C@@H](c1ccc(F)cc1)[C@H]2C(=O)OC (some centres undefined) | 14.9 µM (inactive) | 16.8 µM (inactive) | 7.19 µM (inactive) | 2.92 µM (inactive) | 16.6 µM (inactive) | 18.8 µM (inactive) | 18.4 µM (inactive) | 10.4 µM (inactive) | 3.87 µM (inactive) | 4.98 µM (inactive) | 20.9 µM (inactive) | 12.2 µM (inactive) | 23.7 µM (inactive) | 12.3 µM (inactive) | 3.63 µM (inactive) | 21.9 µM (inactive) | 14.1 µM (inactive) | – | 17.3 µM (inactive)
CCOC(=O)c1c(N)n(-c2ccccc2)c(=O)n(-c2ccccc2)c1=O | > 100 µM (inactive) | – | – | > 100 µM (inactive) | > 100 µM (inactive) | > 100 µM (inactive) | > 100 µM (inactive) | > 100 µM (inactive) | – | – | > 100 µM (inactive) | – | > 100 µM (inactive) | > 100 µM (inactive) | > 100 µM (inactive) | > 100 µM (inactive) | > 100 µM (inactive) | > 100 µM (inactive) | > 100 µM (inactive)
COc1cc2c(cc1OCCCCOc1cc3nc(C)nc(Cl)c3cc1OC)N=C[C@@H]1CCCN1C2=O | 3.12 µM (inactive) | – | 2.21 µM (inactive) | 2.48 µM (inactive) | 2.42 µM (inactive) | 1.64 µM (inactive) | 1.27 µM (inactive) | 1.88 µM (inactive) | – | 2.27 µM (inactive) | 3.01 µM (inactive) | 3.11 µM (inactive) | 2.74 µM (inactive) | 1.77 µM (inactive) | 1.93 µM (inactive) | 2.34 µM (inactive) | 1.88 µM (inactive) | 0.637 µM (active) | 1.85 µM (inactive)
O=C(c1ccccc1)c1ccc(N2C(=O)/C(=C/c3cccc([N+](=O)[O-])c3)N=C2c2ccccc2)c(N2C(=O)/C(=C/c3cccc([N+](=O)[O-])c3)N=C2c2ccccc2)c1 | 79.1 µM (inactive) | 19.3 µM (inactive) | 39.4 µM (inactive) | 0.759 µM (active) | 41.9 µM (inactive) | 32.4 µM (inactive) | 42 µM (inactive) | 14.4 µM (inactive) | 21.7 µM (inactive) | 25.1 µM (inactive) | 42.5 µM (inactive) | 27.3 µM (inactive) | 62.5 µM (inactive) | 2.34 µM (inactive) | 98.4 µM (inactive) | 42.5 µM (inactive) | 66.7 µM (inactive) | – | –
